Results published in publication PMC10458458, “Characterization of Anticancer Effects of the Analogs of DJ4, a Novel Selective Inhibitor of ROCK and MRCK Kinases” (Pharmaceuticals, 2023).

Assays:
Experiment in all cases: NCI-60 screen (SRB)
Assay type in all cases: cell-based, human
MOLT-4 = MOLT-4 (Leukemia), 10 µM, 48 h; negative = cell death vs time zero
Text: (§1) The selected active compounds were screened at NCI, as a part of In Vitro Cell Line Screening Project (IVCLSP), for their effect on cell growth in 60 different cancer cell lines. The 60 human cancer cell line panel included leukemia, melanoma, non-small cell lung cancer, colon, central nervous system (CNS), ovarian, renal, prostate, and breast cancer cell lines. The detailed procedure and applications of NCI-60 cell line screening can be found at https://dtp.cancer.gov/discovery_development/nci-60/default.htm (accessed on 9 January 2023). Briefly, cells were plated in 96-well plates and incubated for 24 h. One set of cells was fixed with trichloroacetic acid at time 0 h (Tz), and SRB (sulphorhodamine B) assays were performed to quantify the cells. The remaining set of cells were treated with 10 µM single concentration of each compound and incubated for 48 h (Te) after which the cells were fixed, and the SRB assays were performed. Data are presented as percent growth relative to the control as 100% according to the following calculations:
(§2) When Te >/= Tz. Growth(%)=Te−Tz/C−Tz∗100 and when Te < Tz. (1) Growth(%)=Te−Tz/Tz∗100
(§3) Values between 0–100 indicate cell growth, zero (0) indicates no cell growth, values < 0 indicate cell death.

NCI/ADR-RES = details: 10 µM, 48 h; for percent cell growth: NCI/ADR-RES (Ovarian Cancer), negative = cell death vs time zero; for increase in cell number: NCI/ADR-RES (ovarian)
Text: as §1, §2, §3

LOX IMVI = LOX IMVI (Melanoma), 10 µM, 48 h; negative = cell death vs time zero
Text: as §1, §2, §3

SK-OV-3 = SK-OV-3 (Ovarian Cancer), 10 µM, 48 h; negative = cell death vs time zero
Text: as §1, §2, §3

U251 = U251 (CNS Cancer), 10 µM, 48 h; negative = cell death vs time zero
Text: as §1, §2, §3

HS 578T = HS 578T (Breast Cancer), 10 µM, 48 h; negative = cell death vs time zero
Text: as §1, §2, §3

HCC-2998 = details: 10 µM, 48 h; for percent cell growth: HCC-2998 (Colon Cancer), negative = cell death vs time zero
Text: as §1, §2, §3

NCI-H322M = NCI-H322M (Non-Small Cell Lung Cancer), 10 µM, 48 h; negative = cell death vs time zero
Text: as §1, §2, §3

EKVX = EKVX (Non-Small Cell Lung Cancer), 10 µM, 48 h; negative = cell death vs time zero
Text: as §1, §2, §3

HCT-15 = HCT-15 (Colon Cancer), 10 µM, 48 h; negative = cell death vs time zero
Text: as §1, §2, §3

NCI-H460 = NCI-H460 (Non-Small Cell Lung Cancer), 10 µM, 48 h; negative = cell death vs time zero
Text: as §1, §2, §3

UACC-62 = UACC-62 (Melanoma), 10 µM, 48 h; negative = cell death vs time zero
Text: as §1, §2, §3

MDA-MB-435 = MDA-MB-435 (Melanoma), 10 µM, 48 h; negative = cell death vs time zero
Text: as §1, §2, §3

HOP-92 = HOP-92 (Non-Small Cell Lung Cancer), 10 µM, 48 h; negative = cell death vs time zero
Text: as §1, §2, §3

OVCAR-3 = OVCAR-3 (Ovarian Cancer), 10 µM, 48 h; negative = cell death vs time zero
Text: as §1, §2, §3

DU-145 = DU-145 (Prostate Cancer), 10 µM, 48 h; negative = cell death vs time zero
Text: as §1, §2, §3

NCI-H522 = NCI-H522 (Non-Small Cell Lung Cancer), 10 µM, 48 h; negative = cell death vs time zero
Text: as §1, §2, §3

SF-539 = details: 10 µM, 48 h; for percent cell growth: SF-539 (CNS Cancer), negative = cell death vs time zero
Text: as §1, §2, §3

PC-3 = PC-3 (Prostate Cancer), 10 µM, 48 h; negative = cell death vs time zero
Text: as §1, §2, §3

M14 = M14 (Melanoma), 10 µM, 48 h; negative = cell death vs time zero
Text: as §1, §2, §3

SK-MEL-2 = SK-MEL-2 (Melanoma), 10 µM, 48 h; negative = cell death vs time zero
Text: as §1, §2, §3

OVCAR-5 = OVCAR-5 (Ovarian Cancer), 10 µM, 48 h; negative = cell death vs time zero
Text: as §1, §2, §3

MDA-MB-468 = MDA-MB-468 (Breast Cancer), 10 µM, 48 h; negative = cell death vs time zero
Text: as §1, §2, §3

RPMI-8226 = details: 10 µM, 48 h; for percent cell growth: RPMI-8226 (Leukemia), negative = cell death vs time zero; for increase in cell number: RPMI-8226 (leukemia)
Text: as §1, §2, §3

KM12 = KM12 (Colon Cancer), 10 µM, 48 h; negative = cell death vs time zero
Text: as §1, §2, §3

UACC-257 = UACC-257 (Melanoma), 10 µM, 48 h; negative = cell death vs time zero
Text: as §1, §2, §3

HL-60(TB) = HL-60(TB) (Leukemia), 10 µM, 48 h; negative = cell death vs time zero
Text: as §1, §2, §3

Structure (SMILES)	percent cell growth (MOLT-4) [%]	percent cell growth (NCI/ADR-RES) [%]	increase in cell number (NCI/ADR-RES)	percent cell growth (LOX IMVI) [%]	percent cell growth (SK-OV-3) [%]	percent cell growth (U251) [%]	percent cell growth (HS 578T) [%]	percent cell growth (HCC-2998) [%]	percent cell growth (NCI-H322M) [%]	percent cell growth (EKVX) [%]	percent cell growth (HCT-15) [%]	percent cell growth (NCI-H460) [%]	percent cell growth (UACC-62) [%]	percent cell growth (MDA-MB-435) [%]	percent cell growth (HOP-92) [%]	percent cell growth (OVCAR-3) [%]	percent cell growth (DU-145) [%]	percent cell growth (NCI-H522) [%]	percent cell growth (SF-539) [%]	percent cell growth (PC-3) [%]	also measured
C=CC/N=C1\NC(=O)/C(=C\c2c[nH]c3ncccc23)S1 [DJ-Allyl]	5.8	42.1	~ 40%	0.6	−7.0	0.8	−15.0	44.6	10.2	30.5	24.7	2.2	9.8	21.1	−1.9	−7.0	12.7	−5.3	−66.2	12.6	increase in cell number (HCC-2998; HCC-2998 (colon)): ~ 40%; reduction in cell number (SF-539; SF-539 (CNS)): 60%; percent cell growth (M14): 24.5%; percent cell growth (SK-MEL-2): −8.4%; percent cell growth (OVCAR-5): 5.3%; percent cell growth (MDA-MB-468): 1.0%; percent cell growth (RPMI-8226): 42.7%; increase in cell number (RPMI-8226): ~ 40%; percent cell growth (KM12): 7.9%; percent cell growth (UACC-257): 9.6%; percent cell growth (HL-60(TB)): −14.5%
CC/N=C1\NC(=O)/C(=C\c2c[nH]c3ncccc23)S1 [DJE4]	−6.0	29.7	29%	1.8	−10.3	−9.5	−15.1	10.2	5.8	14.1	16.0	2.4	−16.0	−0.8	4.4	−2.1	9.9	−28.6	−64.2	2.3	percent cell growth (M14): 0.7%; percent cell growth (SK-MEL-2): −48.7%; percent cell growth (OVCAR-5): 8.7%; percent cell growth (MDA-MB-468): −34.7%; percent cell growth (RPMI-8226): 29.1%; increase in cell number (RPMI-8226): 29%; percent cell growth (KM12): 6.2%; percent cell growth (UACC-257): −15.9%; percent cell growth (HL-60(TB)): −22.4%
